Assay results reported in patent publication US6200993A, “Heterosubstituted pyridine derivatives as PDE4 inhibitors” (Merck Frosst Canada & Co., priority 2000, dated 2001).

The molecules below were run against T1, GST-Met 248 PDE 4a (purified GST fusion protein of the human recombinant phosphodiesterase IVa (met-248)) (Homo sapiens, UniProt P27815) (assay: SPA Based PDE Activity Assay (hydrolysis of cAMP to AMP)). Settings: 100 nM cAMP; baculovirus/Sf-9 expressed enzyme; ten point titration.
T1 construct: phosphodiesterase IVa (met-248); made in house; host or cells: Sf-9 insect cells (baculovirus)
Type: biochemical
Protocol: SPA Based PDE Activity Assay Protocol
Compounds which inhibit the hydrolysis of cAMP to AMP by the type-IV cAMP-specific phosphodiesterases were screened in 96-well plate format as follows:
In a 96 well-plate at 30° C. was added the test compound (dissolved in 2 μl DMSO), […] of substrate buffer containing [2,8-^3 H] adenosine 3',5'-cyclic phosphate (cAMP, 100 nM to 50 μM), 10 mM MgCl2, 1 mM EDTA, 50 mM Tris, pH 7.5. The reaction was initiated by the addition of […] of human recombinant PDE-IV (the amount was controlled so that ~10% product was formed in 10 min.). The reaction was stopped after 10 min. by the addition of 1 mg of PDE-SPA beads (Amersham). The product AMP generated was quantified on a Microbeta 96-well plate counter. The signal in the absence of enzyme was defined as the background. 100% activity was defined as the signal detected in the presence of enzyme and DMSO with the background subtracted. Percentage of inhibition was calculated accordingly. IC50 value was approximated with a non-linear regression fit using the standard 4-parameter/multiple binding sites equation from a ten point titration.
IC50 values shown in Table 7 were determined with 100 nM cAMP using the purified GST fusion protein of the human recombinant phosphodiesterase IVa (met-248) produced from a baculovirus/Sf-9 expression system.

T1 sequence (P27815 248-886 limits assumed): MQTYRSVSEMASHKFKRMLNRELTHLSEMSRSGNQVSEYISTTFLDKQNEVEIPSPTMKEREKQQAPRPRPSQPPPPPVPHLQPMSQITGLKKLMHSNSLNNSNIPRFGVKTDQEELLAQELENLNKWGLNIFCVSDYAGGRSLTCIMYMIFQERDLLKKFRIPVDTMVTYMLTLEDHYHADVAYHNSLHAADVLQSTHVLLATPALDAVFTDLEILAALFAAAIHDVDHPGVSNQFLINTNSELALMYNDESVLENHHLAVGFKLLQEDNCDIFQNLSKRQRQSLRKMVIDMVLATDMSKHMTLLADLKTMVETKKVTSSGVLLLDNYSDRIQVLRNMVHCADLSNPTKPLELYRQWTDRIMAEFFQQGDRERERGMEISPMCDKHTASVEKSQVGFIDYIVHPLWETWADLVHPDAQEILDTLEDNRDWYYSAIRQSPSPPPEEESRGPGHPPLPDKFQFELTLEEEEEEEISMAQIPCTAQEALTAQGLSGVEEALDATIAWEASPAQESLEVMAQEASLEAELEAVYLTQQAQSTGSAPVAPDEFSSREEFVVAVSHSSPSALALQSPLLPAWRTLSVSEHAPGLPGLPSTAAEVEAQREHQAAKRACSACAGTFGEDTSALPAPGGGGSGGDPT

In order of falling IC50:
1. COc1ccc(N(C)c2ccc(C(Cc3cc[n+]([O-])cc3)c3ccc(OC(F)F)c(OC(F)F)c3)cn2)cc1 (racemic) [Example 69, 4-{2-[3,4-Bis(difluoromethoxy)phenyl]-2-[6-(N-methyl-N-4-methoxyphenylamino)3-pyridyl]ethyl}pyridine-N-oxide]  3.1 nM
2. CN(Cc1ccccc1)c1ccc(C(Cc2ccncc2)c2ccc(OC(F)F)c(OC(F)F)c2)cn1 (racemic) [Example 54, 4-{2-[3,4-BIS(DIFLUOROMETHOXY)PHENYL]-2-[6-(N-METHYL-N-BENZYLAMINO)3-PYRIDYL]ETHYL}PYRIDINE]  2.84 nM
3. CC(C)(Nc1ccc(C(Cc2cc[n+]([O-])cc2)c2ccc(OC(F)F)c(OC(F)F)c2)cn1)c1ccccc1 (racemic) [Example 11, 4-{2-[3,4-Bis(difluoromethoxy)phenyl]-2-[6-(1-methyl-1-phenylethylamino)3-pyridyl]ethyl}pyridine-N-oxide]  1.63 nM
4. O=C(c1ccc(F)cc1)N(C(=O)c1ccc(F)cc1)c1ccc(C(Cc2cc[n+]([O-])cc2)c2ccc(OC(F)F)c(OC(F)F)c2)cn1 (single isomer, unassigned; enantiomer-2) [Example 99, (ENANTIOMER-2)-4-{2-[3,4-BIS(DIFLUOROMETHOXY)PHENYL]-2-{6-[N,N-DI(4-FLUOROBENZAMIDE)]3-PYRIDYL}ETHYL}PYRIDINE-N-OXIDE]  0.84 nM
5. FC(F)Oc1ccc(C(Cc2ccncc2)c2ccc(NCc3ccccc3)nc2)cc1OC(F)F (racemic) [Example 1, 4-{2-[3,4-Bis(difluoromethoxy)phenyl]-2-[6-(benzylamino)3-pyridyl]ethyl}pyridine]  0.75 nM
